This note sets out measurements from patent publication US8399438B2, “2α-methyl-19-nor-1α-hydroxy-homopregnacalciferol and its uses” (Wisconsin Alumni Research Foundation, priority 2004, dated 2013).

SMILES strings stand for the structures.

For test [1], the system named is 24-hydroxylase (24Ohase) gene promoter in ROS 17/2.8 (bone) cells. Put plainly: In vitro transcription assay (24-hydroxylase promoter luciferase reporter). It counts as cell-based. The note with it: ROS 17/2.8 cells, 16 h, FIG. 3, read-out: EC50, transcriptional activity in bone cells. The method, then: Transcription activity was measured in ROS 17/2.8 (bone) cells that were stably transfected with a 24-hydroxylase (24Ohase) gene promoter upstream of a luciferase reporter gene (Arbour et al., 1998). Cells were given a range of doses. Sixteen hours after dosing the cells were harvested and luciferase activities were measured using a luminometer.
RLU=relative luciferase units.
(In general: Reporter assays use an easily measured gene product as a stand-in for the process of interest.)

Test [2] deals with Human promyelocytic leukemia (HL60) cells. Put plainly: HL-60 differentiation (nitro blue tetrazolium reduction). Conditions: FIG. 2; for EC50: HL60 cells, 4 days, NBT reduction. It counts as cell-based. As for the experimental part: The study drugs were dissolved in ethanol and the concentrations determined using UV spectrophotometry. Serial dilutions were prepared so that a range of drug concentrations could be tested without changing the final concentration of ethanol (≦0.2%) present in the cell cultures.
Human promyelocytic leukemia (HL60) cells were grown in RPMI-1640 medium containing 10% fetal bovine serum. The cells were incubated at 37° C. in the presence of 5% CO2.
HL60 cells were plated at 1.2×10^5 cells/ml. Eighteen hours after plating, cells in duplicate were treated with drug. Four days later, the cells were harvested and a nitro blue tetrazolium reduction assay was performed (Collins et al., 1979; J. Exp. Med. 149:969-974). The percentage of differentiated cells was determined by counting a total of 200 cells and recording the number that contained intracellular black-blue formazan deposits. Verification of differentiation to monocytic cells was determined by measuring phagocytic activity (data not shown).

For test [3], the system named is Sprague-Dawley rats. Briefly: PTH suppression (bioactive serum PTH, ELISA). It is filed as in vivo, rat. As for the experimental part: Adult, female Sprague-Dawley rats were obtained from Harlan (Madison, Wis.). Upon receipt, the animals were identified by individual tail marks. Animals were housed in suspended, stainless steel, wire-bottom cages. Each cage contained one animal. The animal rooms were maintained at a temperature of 68 to 72° F. and a relative humidity of 25 to 75%. The holding rooms were set to provide 12 hours of light per day. Water and a purified rodent diet (Suda et al., Purified Rodent Diet-Diet 11) containing […] 0.3% phosphorus and fat soluble vitamins A, D, E and K were provided ad libitum. Treatment Groups Animals were randomly assigned to treatment groups (5 animals/group). All doses were administered intraperitoneally in 100 microliters of propylene glycol. Four to seven consecutive doses were given approximately 24 hours apart. Dosing was initiated after the animals had been allowed to acclimate for at least one week. Dose Preparation Control Material Negative Control Material […] The solution was mixed and then stored at 2 to 8° C. The analogs were prepared by first determining the concentration of an ethanol stock solution using UV spectrophotometry (extinction coefficient=42,000; λmax=252 nm). The analog solutions were then volumetrically added to propylene glycol so that there was less than 5% ethanol in the final solution. The solution was mixed and stored at 2 to 8° C. […] Serum PTH Levels. Twenty-four hours after the final dose, blood was collected from the tail artery and the concentration of bioactive serum PTH was measured using the rat BioActive Intact PTH ELISA Kit from Immutopics, Inc. (San Clemente, Calif.). Serum Calcium Analysis Twenty-four hours after the final dose, approximately 1 ml of blood was collected from the tail artery of each experimental animal. The blood was allowed to coagulate at room temperature and then centrifuged at 3000×g for 15 minutes. The serum was transferred to a polypropylene tube and stored frozen at −20° C. The level of calcium was determined by diluting the serum into 0.1% lanthum chloride and measuring the absorbance on an atomic absorption spectrophotometer (Perkin Elmer Model 3110, Shelton, Conn.).

The subject of test [4] is Sprague-Dawley rats. Briefly: Bone calcium mobilization (serum calcium) in vitamin D-deficient rats. It is filed as in vivo, rat. The note with it: for bone calcium mobilization (serum calcium): rats on 0.02% Ca diet. As for the experimental part:
(§1) Male, weanling Sprague-Dawley rats were placed on Diet 11 (0.47% Ca) diet+AEK for one week followed by Diet 11 (0.02% Ca)+AEK for 3 weeks. The rats were then switched to a diet containing 0.47% Ca for one week followed by two weeks on a diet containing 0.02% Ca. Dose administration began during the last week on 0.02% calcium diet. Four consecutive ip doses were given approximately 24 hours apart. Twenty-four hours after the last dose, blood was collected from the severed neck and the concentration of serum calcium determined as a measure of bone calcium mobilization. The first 10 cm of the intestine was also collected for intestinal calcium transport analysis using the everted gut sac method.

Test [5] deals with Sprague-Dawley rats. Briefly: Intestinal calcium transport (everted gut sac method) in vitamin D-deficient rats. It counts as in vivo, rat. Conditions: for intestinal calcium transport: everted gut sac. As for the experimental part:
as §1

For test [6], the target named is T1, full-length recombinant rat vitamin D receptor (Rattus norvegicus, UniProt P13053).
T1 construct: Full-length recombinant rat receptor was expressed in E. coli; histidine tag (C); made in house; host or cells: E. coli BL21 (DE3) Codon Plus RIL
T1 sequence (P13053 1-423): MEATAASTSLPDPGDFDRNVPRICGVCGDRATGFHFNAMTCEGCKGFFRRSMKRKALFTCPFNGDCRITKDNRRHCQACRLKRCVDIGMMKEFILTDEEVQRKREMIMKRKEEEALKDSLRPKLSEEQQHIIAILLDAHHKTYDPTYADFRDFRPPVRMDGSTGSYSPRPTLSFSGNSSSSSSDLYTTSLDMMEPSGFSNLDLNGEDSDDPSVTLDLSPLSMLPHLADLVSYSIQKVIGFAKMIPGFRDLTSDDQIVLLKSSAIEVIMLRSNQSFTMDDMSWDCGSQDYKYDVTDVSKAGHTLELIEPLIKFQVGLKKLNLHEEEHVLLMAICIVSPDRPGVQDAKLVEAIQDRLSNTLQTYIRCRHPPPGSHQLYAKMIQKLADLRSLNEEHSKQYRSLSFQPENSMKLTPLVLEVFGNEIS
Briefly: Vitamin D receptor binding, competition with [3H]-1,25(OH)2D3. Conditions: FIG. 1. As for the experimental part:
Full-length recombinant rat receptor was expressed in E. coli BL21 (DE3) Codon Plus RIL cells and purified to homogeneity using two different column chromatography systems. The first system was a nickel affinity resin that utilizes the C-terminal histidine tag on this protein. The protein that was eluted from this resin was further purified using ion exchange chromatography (S-Sepharose Fast Flow). Aliquots of the purified protein were quick frozen in liquid nitrogen and stored at −80° C. until use. For use in binding assays, the protein was diluted in TEDK50 (50 mM Tris, 1.5 mM EDTA, pH7.4, 5 mM DTT, 150 mM KCl) with 0.1% Chaps detergent. The receptor protein and ligand concentration were optimized such that no more than 20% of the added radiolabeled ligand was bound to the receptor.
Radiolabeled and unlabeled ligands were added to 100 mcl of the diluted protein at a final ethanol concentration of ≦10%, mixed and incubated overnight on ice to reach binding equilibrium. The following day, 100 mcl of hydroxylapatite slurry (50%) was added to each tube and mixed at 10-minute intervals for 30 minutes. The hydroxylapaptite was collected by centrifugation and then washed three times with Tris-EDTA buffer (50 mM Tris, 1.5 mM EDTA, pH 7.4) containing 0.5% Titron X-100. […] Total binding was determined from the tubes containing only radiolabeled ligand.

What is called EC50 is the concentration that produces a half-maximal response. As for `C=C1/C(=C\C=C2/CCC[C@]3(C)[C@@H]([C@H](C)CCCC(C)(C)O)CC[C@@H]23)C[C@@H](O)C[C@@H]1O` [1,25(OH)2D3, 1α,25-dihydroxyvitamin D3, reference compound], the EC50 was found to be 0.29 nM in test [1] and 3.6 nM in test [2]. Also, the PTH suppression with Sprague-Dawley rats [3] (100 pmol/day ip, 4 consecutive days) is 100%. Besides, the “bone calcium mobilization (serum calcium)” value in the test with Sprague-Dawley rats [4] (all dosages tested) was “increased serum calcium levels”. The intestinal calcium transport result in the test with Sprague-Dawley rats [5] (260 pmol/day ip) is recorded as “promotes a significant increase”.
Usually Ki stands for the dissociation constant of the complex between target and ligand, obtained from inhibition or displacement. Regarding `CC(C)C1CCC2C(=CC=C3CC(O)C(C)C(O)C3)CCCC21C` (stereo not drawn) [2α-methylP, 2α-methyl-19-nor-1α-hydroxy-homopregnacalciferol], the concentration giving a half-maximal response (EC50) in test [1] stood at 3.3 nM; in test [2] (Homo sapiens, HL-60, 96 h), 38 nM. For the same compound, the “HL-60 cell differentiation potency compared to 1,25(OH)2D3 (in words)” value in test [2] is recorded as “almost as potent as 1,25(OH)2D3”. Besides, the PTH suppression entry with Sprague-Dawley rats [3] (500 pmol/day ip, 7 consecutive days) is “about 20%”; in the test with Sprague-Dawley rats [3] (1500 pmol/day ip, 7 consecutive days), “about 20%”; with Sprague-Dawley rats [3] (4500 pmol/day ip, 7 consecutive days) it was “about 60%”. For the same compound, the “PTH suppression compared to 1,25(OH)2D3 (in words)” value in the test with Sprague-Dawley rats [3] (FIG. 6) is reported as “not as potently as 1,25(OH)2D3”. In addition, the “bone calcium mobilization (serum calcium)” value is “did not result in mobilization of bone calcium” in the test on Sprague-Dawley rats [4] (87 pmol/day ip, 4 consecutive days); “without any substantial effect” in the test with Sprague-Dawley rats [4] (260 pmol/day ip, 4 consecutive days); “without any substantial effect” with Sprague-Dawley rats [4] (780 pmol/day ip, 4 consecutive days); “without any substantial effect” in the test on Sprague-Dawley rats [4] (2340 pmol/day ip, 4 consecutive days). Moreover, the “bone calcium mobilization activity compared to 1,25(OH)2D3 (in words)” value in the test with Sprague-Dawley rats [4] (overall, FIG. 4) was “very little bone calcium mobilization activity”. Besides, in test [6], the “VDR binding compared to 1,25-(OH)2D3 (in words)” value is given as “bound equally well”. In test [6] (full-length recombinant rat VDR), the Ki stood at 0.94 nM. Further, the intestinal calcium transport result with Sprague-Dawley rats [5] (87 pmol/day ip), in the test with Sprague-Dawley rats [5] (260 pmol/day ip), in the test on Sprague-Dawley rats [5] (780 pmol/day ip) and with Sprague-Dawley rats [5] (2340 pmol/day ip) was “does not promote intestinal calcium transport” each time. In the test with Sprague-Dawley rats [5] (overall, FIG. 5), the “intestinal calcium transport activity compared to 1,25(OH)2D3 (in words)” value is reported as “very little activity”.
